Experimental findings from ChEMBL document CHEMBL2401651, “Discovery of novel P2 substituted 4-biaryl proline inhibitors of hepatitis C virus NS3 serine protease” (Bioorg Med Chem Lett, 2013) are described below.

Structures are written as SMILES.

The nature of series [1]: Half life in human liver microsomes. It counts as ADME, Microsome. Background: Microsomes from liver hold many membrane-bound enzymes, among them those of drug oxidation.
Series [2] in a line: Permeability of the compound in human Caco2 cells. The format is ADME, cell-based. The settings on record: Caco-2, read-out: permeability. (In general: Passage across Caco-2 layers is used to estimate intestinal permeability.)
Series [3] has as its system Hepatitis C virus. Briefly: Antiviral activity against Hepatitis C virus infected in human […] cells after 72 hrs by luciferase reporter gene assay. The format is functional, organism-based, Hepacivirus hominis. On the technique in general: Reporter assays use an easily measured gene product as a stand-in for the process of interest.
Series [4] is described as follows: Inhibition of Hepatitis C virus genotype 1 NS3 protease.

What is called half-life is the time in which the quantity being followed falls by half. Read a high half-life as slow loss. Usually EC50 stands for the concentration giving half of the maximal effect. Higher therefore signals a need for much substance. The IC50 is the midpoint of a concentration-inhibition curve. By Ki is commonly meant the equilibrium dissociation constant of an inhibitor or competing ligand from its target. Read a low Ki as tighter binding.

As to `C=C[C@@H]1C[C@]1(NC(=O)[C@@H]1C[C@@H](n2cnc(-c3ccccc3)c2)CN1C(=O)[C@@H](NC(=O)OC1CCCC1)C(C)(C)C)C(=O)NS(=O)(=O)C1CC1`, the half-life in series [1] came out at 3.68 h. The Papp in series [2] came out at 0.2 ×10⁻⁶ cm/s. This compound yielded an EC50 in series [3] of 1340 nM. In series [4], this compound gave an IC50 of 1.8 nM.

The compound `C=C[C@@H]1C[C@]1(NC(=O)[C@@H]1C[C@@H](n2cc(-c3ccccc3)c(C)n2)CN1C(=O)[C@@H](NC(=O)OC1CCCC1)C(C)(C)C)C(=O)NS(=O)(=O)C1CC1` gave a half-life in series [1] of 0.1 h. Besides, in series [2], the Papp is 0.7 ×10⁻⁶ cm/s. Further, the midpoint of the response in series [3], the EC50, lay at 320 nM. For the same compound, half-maximal inhibition in series [4] (IC50) required 2.5 nM.

For the compound `C=C[C@@H]1C[C@]1(NC(=O)[C@@H]1C[C@@H](c2nc(-c3ccccc3)cs2)CN1C(=O)[C@@H](NC(=O)OC1CCCC1)C(C)(C)C)C(=O)NS(=O)(=O)C1CC1`, in series [1], the half-life was 2.38 h. In addition, the Papp in series [2] is 4.4 ×10⁻⁶ cm/s. The same compound gave an EC50 in series [3] of 580 nM. In addition, the IC50 in series [4] is 3.2 nM.

In turn, `C=C[C@@H]1C[C@]1(NC(=O)[C@@H]1C[C@@H](c2csc(-c3ccccc3)n2)CN1C(=O)[C@@H](NC(=O)OC1CCCC1)C(C)(C)C)C(=O)NS(=O)(=O)C1CC1` registered a half-life in series [1] of 2.25 h. Moreover, the Papp in series [2] turned out to be 4.6 ×10⁻⁶ cm/s. In series [3], this compound had an EC50 of 175 nM. Besides, inhibition in series [4] was half-maximal at 2.7 nM (IC50).

In turn, `C=C[C@@H]1C[C@]1(NC(=O)[C@@H]1C[C@@H](c2csc(-c3cccnc3)n2)CN1C(=O)[C@@H](NC(=O)OC1CCCC1)C(C)(C)C)C(=O)NS(=O)(=O)C1CC1` yielded a 50% effective concentration (EC50) in series [3] of 915 nM. Also, the IC50 in series [4] came out at 12 nM.

`C=C[C@@H]1C[C@]1(NC(=O)[C@@H]1C[C@@H](c2csc(-c3ccc(OC)cc3)n2)CN1C(=O)[C@@H](NC(=O)OC1CCCC1)C(C)(C)C)C(=O)NS(=O)(=O)C1CC1` registered an EC50 in series [3] of 530 nM. The IC50 in series [4] was 5.2 nM.

In series [3], `C=C[C@@H]1C[C@]1(NC(=O)[C@@H]1C[C@@H](c2csc(-c3cccc(OC)c3)n2)CN1C(=O)[C@@H](NC(=O)OC1CCCC1)C(C)(C)C)C(=O)NS(=O)(=O)C1CC1` had an EC50 of 140 nM. In addition, inhibition in series [4] was half-maximal at 3.4 nM (IC50).

With `C=C[C@@H]1C[C@]1(NC(=O)[C@@H]1C[C@@H](c2csc(-c3ccccc3OC)n2)CN1C(=O)[C@@H](NC(=O)OC1CCCC1)C(C)(C)C)C(=O)NS(=O)(=O)C1CC1`, the 50% effective concentration (EC50) in series [3] was found to be 35 nM. Moreover, half-maximal inhibition in series [4] (IC50) required 0.74 nM.

In the case of `C=C[C@@H]1C[C@]1(NC(=O)[C@@H]1C[C@@H](c2csc(-c3ccccc3OCC)n2)CN1C(=O)[C@@H](NC(=O)OC1CCCC1)C(C)(C)C)C(=O)NS(=O)(=O)C1CC1`, the EC50 in series [3] turned out to be 37 nM. The 50% inhibitory concentration (IC50) in series [4] is 0.78 nM.

In series [3], `C=C[C@@H]1C[C@]1(NC(=O)[C@@H]1C[C@@H](c2csc(-c3ccccc3C)n2)CN1C(=O)[C@@H](NC(=O)OC1CCCC1)C(C)(C)C)C(=O)NS(=O)(=O)C1CC1` showed an EC50 of 800 nM. This compound also registered an IC50 in series [4] of 6 nM.

The compound `C=C[C@@H]1C[C@]1(NC(=O)[C@@H]1C[C@@H](c2csc(-c3ccccc3F)n2)CN1C(=O)[C@@H](NC(=O)OC1CCCC1)C(C)(C)C)C(=O)NS(=O)(=O)C1CC1` displayed a concentration for a half-maximal effect (EC50) in series [3] of 235 nM. Further, in series [4], the IC50 stood at 1.8 nM.

Take `C=C[C@@H]1C[C@]1(NC(=O)[C@@H]1C[C@@H](c2csc(-c3cccc(OC)c3OC)n2)CN1C(=O)[C@@H](NC(=O)OC1CCCC1)C(C)(C)C)C(=O)NS(=O)(=O)C1CC1`: in series [3], the EC50 is 240 nM. The compound also came in with an IC50 in series [4] of 4.1 nM.

`C=C[C@@H]1C[C@]1(NC(=O)[C@@H]1C[C@@H](c2csc(-c3ccc(OC)cc3OC)n2)CN1C(=O)[C@@H](NC(=O)OC1CCCC1)C(C)(C)C)C(=O)NS(=O)(=O)C1CC1`: in series [3], the EC50 turned out to be 89 nM. The compound also had an IC50 in series [4] of 2.2 nM.

Consider `C=C[C@@H]1C[C@]1(NC(=O)[C@@H]1C[C@@H](c2csc(-c3c(OC)cccc3OC)n2)CN1C(=O)[C@@H](NC(=O)OC1CCCC1)C(C)(C)C)C(=O)NS(=O)(=O)C1CC1`, for which the EC50 in series [3] amounted to 2200 nM. Also, in series [4], the IC50 worked out at 17 nM.

In series [1], `C=C[C@@H]1C[C@]1(NC(=O)[C@@H]1C[C@@H](c2csc(-c3cc(OC)ccc3OC)n2)CN1C(=O)[C@@H](NC(=O)OC1CCCC1)C(C)(C)C)C(=O)NS(=O)(=O)C1CC1` registered a half-life of 1.15 h. For the same compound, the Papp in series [2] was 7 ×10⁻⁶ cm/s. This compound also showed an EC50 in series [3] of 16 nM. Moreover, in series [4], the IC50 stood at 0.9 nM and the affinity, expressed as Ki, was 0.23 nM.

Turning to `C=C[C@@H]1C[C@]1(NC(=O)[C@@H]1C[C@@H](c2csc(-c3cc(C)ccc3OC)n2)CN1C(=O)[C@@H](NC(=O)OC1CCCC1)C(C)(C)C)C(=O)NS(=O)(=O)C1CC1`, it took 27 nM to reach a half-maximal effect in series [3] (EC50). Half-maximal inhibition in series [4] (IC50) required 1.7 nM.

On to `C=C[C@@H]1C[C@]1(NC(=O)[C@@H]1C[C@@H](c2csc(-c3cc(F)ccc3OC)n2)CN1C(=O)[C@@H](NC(=O)OC1CCCC1)C(C)(C)C)C(=O)NS(=O)(=O)C1CC1`, for which the EC50 in series [3] is 28 nM. In series [4], this compound showed an IC50 of 1.1 nM.

For the compound `C=C[C@@H]1C[C@]1(NC(=O)[C@@H]1C[C@@H](c2csc(-c3cc(OC)ccc3OC)n2)CN1C(=O)[C@@H](NC(=O)OC1CCCC1)C(C)(C)C)C(=O)NS(=O)(=O)C1(C)CC1`, the half-life in series [1] came to 0.95 h. For the same compound, in series [2], the Papp is 12 ×10⁻⁶ cm/s. Also, the EC50 in series [3] came out at 9 nM. In series [4], this compound registered an IC50 of 1.1 nM.

As for `C=C[C@@H]1C[C@]1(NC(=O)[C@@H]1C[C@@H](n2cc(-c3ccccc3)nn2)CN1C(=O)[C@@H](NC(=O)OC1CCCC1)C(C)(C)C)C(=O)NS(=O)(=O)C1CC1`, in series [1], the half-life came to 1.57 h. Besides, the Papp in series [2] turned out to be 1.1 ×10⁻⁶ cm/s. This compound returned an EC50 in series [3] of 430 nM. The compound further returned an IC50 in series [4] of 2.7 nM.
